Molecular target: T1, hTac1-hM4D (Homo sapiens, UniProt P08173, A203G/Y113C)
T1 construct: expressed in transfected cells; host or cells: rat trigeminal ganglion neurons in vivo, viral vector with Tac1 promoter
T1 sequence (P08173 1-479 Y113C/A203G): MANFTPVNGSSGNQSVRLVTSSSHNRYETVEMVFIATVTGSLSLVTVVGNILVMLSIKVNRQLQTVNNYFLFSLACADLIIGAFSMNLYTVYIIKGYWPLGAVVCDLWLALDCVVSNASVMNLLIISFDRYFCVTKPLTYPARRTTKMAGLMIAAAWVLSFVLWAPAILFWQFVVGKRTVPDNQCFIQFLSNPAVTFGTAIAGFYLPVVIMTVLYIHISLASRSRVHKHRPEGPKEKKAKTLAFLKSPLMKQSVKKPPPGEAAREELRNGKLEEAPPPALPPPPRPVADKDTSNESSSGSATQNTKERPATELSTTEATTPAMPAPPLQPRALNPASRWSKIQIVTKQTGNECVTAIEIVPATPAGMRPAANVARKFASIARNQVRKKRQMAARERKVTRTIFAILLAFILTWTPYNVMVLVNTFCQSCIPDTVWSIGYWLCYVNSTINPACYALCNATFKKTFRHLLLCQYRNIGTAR
Test: Pin-prick response score, Tac1-DREADD (hTac1-hM4D) in trigeminal ganglion, non-CCI animals
Type: in vivo, rat
Settings: females, n=7 per group, CNO i.p. vs vehicle
From the text: The effects of Tac1-DREADD activation with CNO on pin-prick response score were also studied (FIG. 8). All animals (female, n=7 per group) had Tachykinin 1-DREADD (hTac1-hM4D) injected into the trigeminal ganglion unilaterally. Average pin-prick response scores (±SEM) were plotted following intraperitoneal (i.p.) administration of CNO or vehicle.

C[N+]1([O-])CCN(C2=Nc3cc(Cl)ccc3Nc3ccccc32)CC1 [CNO, clozapine N-oxide]
pin-prick response score, contralateral vibrissal pad (F=0.01, P=0.9): no significant effect | pin-prick response score, ipsilateral vibrissal pad (F=0.1, P=0.8): no significant effect
